Several values for one entry are separate records, joined by “and”; a condition that tells them apart may be missing. Equal entries are not always repeated. Inconclusive results and toxic doses are left out. The calls were made as follows: active = survival T/C of 150% or more; inactive = T/C below 125% in these data.
System: P388 leukemia ip, CD2F1 mice, survival T/C
Assay: NCI In Vivo Anticancer Drug Screen. Data for tumor model P388 Leukemia (intraperitoneal) in CD2F1 (CDF1) mice
Details: endpoint: median survival time, higher = longer survival
Method in brief: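 Mice carrying the transplanted tumor received test compound or vehicle. Survival was recorded in each group, and the value is the treated-group measurement divided by that of the vehicle-treated control group.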

[1] = dose: 50.0 mg/kg/injection, schedule: Q01DX009 (ip), vehicle: Klucel (hydroxypropylcellulose) (HPC)
[2] = dose: 100.0 mg/kg/injection, schedule: Q01DX009 (ip), vehicle: Klucel (hydroxypropylcellulose) (HPC)
[3] = dose: 200.0 mg/kg/injection, schedule: Q01DX009 (ip), vehicle: Klucel (hydroxypropylcellulose) (HPC)
[4] = dose: 50.0 mg/kg/injection, schedule: Q01DX005 (ip), vehicle: saline with Tween-80
[5] = dose: 100.0 mg/kg/injection, schedule: Q01DX005 (ip), vehicle: saline with Tween-80
[6] = dose: 200.0 mg/kg/injection, schedule: Q01DX005 (ip), vehicle: saline with Tween-80
[7] = dose: 6.25 mg/kg/injection, schedule: Q01DX005 (ip), vehicle: saline with Tween-80
[8] = dose: 12.5 mg/kg/injection, schedule: Q01DX005 (ip), vehicle: saline with Tween-80
[9] = dose: 240.0 mg/kg/injection, schedule: Q01DX005 (ip), vehicle: saline with Tween-80
[10] = dose: 50.0 mg/kg/injection, schedule: Q01DX009 (ip), vehicle: saline with Tween-80
[11] = dose: 100.0 mg/kg/injection, schedule: Q01DX009 (ip), vehicle: saline with Tween-80
[12] = dose: 200.0 mg/kg/injection, schedule: Q01DX009 (ip), vehicle: saline with Tween-80
[13] = dose: 12.5 mg/kg/injection, schedule: Q01DX009 (ip), vehicle: saline with Tween-80
[14] = dose: 25.0 mg/kg/injection, schedule: Q01DX009 (ip), vehicle: saline with Tween-80
[15] = dose: 25.0 mg/kg/injection, schedule: Q01DX005 (ip), vehicle: saline with Tween-80

Measured: T/C

CCCCCCCCCCCCCCCC(=O)N(CCC#N)C(C)(C)CCC(C)(C)N(CCC#N)C(=O)CCCCCCCCCCCCCCC
inactive: dose: 12.5 mg/kg/injection, schedule: Q01DX009 (ip), vehicle: Klucel (hydroxypropylcellulose) (HPC) 99 % of control | dose: 12.5 mg/kg/injection, schedule: Q04DX003 (ip), vehicle: Klucel (hydroxypropylcellulose) (HPC) 88 % of control | dose: 25.0 mg/kg/injection, schedule: Q01DX009 (ip), vehicle: Klucel (hydroxypropylcellulose) (HPC) 98 % of control | dose: 25.0 mg/kg/injection, schedule: Q04DX003 (ip), vehicle: Klucel (hydroxypropylcellulose) (HPC) 88 % of control | [1] 97 % of control | [2] 91 % of control | [3] 91 % of control | dose: 200.0 mg/kg/injection, schedule: Q04DX003 (ip), vehicle: Klucel (hydroxypropylcellulose) (HPC) 94 % of control

CCOc1ccc(C(C)c2cc3c(cc2OCC)OCO3)cc1C (stereo unspecified)
inactive: dose: 25.0 mg/kg/injection, schedule: Q01DX005 (ip), vehicle: Klucel (hydroxypropylcellulose) (HPC) 94 % of control | dose: 50.0 mg/kg/injection, schedule: Q01DX005 (ip), vehicle: Klucel (hydroxypropylcellulose) (HPC) 110 % of control and 116 % of control and 97 % of control | dose: 100.0 mg/kg/injection, schedule: Q01DX005 (ip), vehicle: Klucel (hydroxypropylcellulose) (HPC) 101 % of control and 119 % of control | dose: 200.0 mg/kg/injection, schedule: Q01DX005 (ip), vehicle: Klucel (hydroxypropylcellulose) (HPC) 114 % of control

CCC[CH2][Sn]([CH2]CCC)([CH2]CCC)[S]C(=S)NCCNC(=S)[S][Sn]([CH2]CCC)([CH2]CCC)[CH2]CCC
inactive: dose: 6.25 mg/kg/injection, schedule: Q01DX010 (ip), vehicle: saline 120 % of control

CC1C2c3ccccc3C(c3ccccc32)C1C(=O)O (stereo unspecified)
inactive: [4] 98 % of control | [5] 100 % of control | [6] 107 % of control

COC(=O)/C=C/c1cccn1C(=O)c1c(Cl)cccc1Cl
inactive: [4] 97 % of control | [5] 98 % of control | [6] 87 % of control

CCOc1cc2c(OCc3ccccc3)cc3c4cc(OC)c(OC)cc4c[n+](C)c3c2cc1OC
inactive: dose: 3.12 mg/kg/injection, schedule: Q01DX005 (ip), vehicle: saline with Tween-80 118 % of control | [7] 112 % of control | [8] 91 % of control

COC(=O)c1nnn(-c2ccc(Cl)cc2Cl)c1N
inactive: dose: 60.0 mg/kg/injection, schedule: Q01DX005 (ip), vehicle: saline with Tween-80 103 % of control | dose: 120.0 mg/kg/injection, schedule: Q01DX005 (ip), vehicle: saline with Tween-80 103 % of control | [9] 122 % of control

Cc1nc(O)c(-c2ccc(Cl)cc2)s1
inactive: [10] 102 % of control | [11] 103 % of control | [12] 101 % of control

OC(C(Br)CBr)C(O)C(Br)CBr (stereo unspecified)
inactive: [1] 105 % of control | [2] 110 % of control | [3] 112 % of control

C=CCNC(=O)/C=C\C(=O)O
inactive: dose: 37.5 mg/kg/injection, schedule: Q01DX009 (ip), vehicle: saline with Tween-80 98 % of control | dose: 75.0 mg/kg/injection, schedule: Q01DX009 (ip), vehicle: saline with Tween-80 94 % of control | dose: 150.0 mg/kg/injection, schedule: Q01DX009 (ip), vehicle: saline with Tween-80 94 % of control | dose: 300.0 mg/kg/injection, schedule: Q01DX009 (ip), vehicle: saline with Tween-80 100 % of control

CC(=O)/C=C/c1ccc(OC(=O)/C=C/c2ccccc2)cc1
inactive: [4] 101 % of control | [5] 100 % of control | [6] 98 % of control

CCC[CH2][Sn]([CH2]CCC)([S]CCS(=O)(=O)O)[S]CCS(=O)(=O)O
inactive: dose: 60.0 mg/kg/injection, schedule: Q01DX005 (ip), vehicle: Klucel (hydroxypropylcellulose) (HPC) 100 % of control | dose: 120.0 mg/kg/injection, schedule: Q01DX005 (ip), vehicle: Klucel (hydroxypropylcellulose) (HPC) 101 % of control | dose: 240.0 mg/kg/injection, schedule: Q01DX005 (ip), vehicle: Klucel (hydroxypropylcellulose) (HPC) 99 % of control

COC(=O)C(=O)c1ccccc1
inactive: [10] 107 % of control | [11] 101 % of control | [12] 99 % of control | dose: 400.0 mg/kg/injection, schedule: Q01DX009 (ip), vehicle: saline with Tween-80 99 % of control

O=C(NC(=S)Nc1ccc(CCO)cc1)c1cccc(Br)c1
inactive: dose: 3.75 mg/kg/injection, schedule: Q01DX005 (ip), vehicle: saline with Tween-80 91 % of control | dose: 7.5 mg/kg/injection, schedule: Q01DX005 (ip), vehicle: saline with Tween-80 90 % of control | dose: 15.0 mg/kg/injection, schedule: Q01DX005 (ip), vehicle: saline with Tween-80 87 % of control | [9] 92 % of control

Cc1cccc(Nc2ccccc2C(=O)O)c1C
inactive: dose: 6.25 mg/kg/injection, schedule: Q01DX009 (ip), vehicle: saline with Tween-80 103 % of control | [13] 98 % of control | [14] 111 % of control | [10] 101 % of control

O=C/C=C/C=O
inactive: dose: 3.13 mg/kg/injection, schedule: Q01DX001 (ip), vehicle: saline with Tween-80 102 % of control | dose: 6.25 mg/kg/injection, schedule: Q01DX001 (ip), vehicle: saline with Tween-80 102 % of control | dose: 12.5 mg/kg/injection, schedule: Q01DX001 (ip), vehicle: saline with Tween-80 102 % of control | dose: 25.0 mg/kg/injection, schedule: Q01DX001 (ip), vehicle: saline with Tween-80 114 % of control

Cc1ccc(S(=O)(=O)NC(=O)O/N=C/c2ccc3c(c2)OCO3)cc1
inactive: [10] 100 % of control | [11] 97 % of control | [12] 100 % of control

CSC(Cl)=NC(=O)C(=O)N=C(Cl)SC
inactive: [10] 96 % of control | [11] 89 % of control

CCCCCCCC(=O)[O][Hg][CH2]C1COC([CH2][Hg][O]C(=O)CCCCCCC)CO1 (stereo unspecified)
inactive: dose: 12.5 mg/kg/injection, schedule: Q04DX003 (ip), vehicle: saline with Tween-80 95 % of control | dose: 16.5 mg/kg/injection, schedule: Q01DX009 (ip), vehicle: saline sonified 120 % of control | dose: 16.5 mg/kg/injection, schedule: Q04DX003 (ip), vehicle: saline 90 % of control | dose: 25.0 mg/kg/injection, schedule: Q04DX003 (ip), vehicle: saline with Tween-80 109 % of control | dose: 25.0 mg/kg/injection, schedule: Q04DX003 (ip), vehicle: saline 90 % of control | dose: 37.5 mg/kg/injection, schedule: Q01DX009 (ip), vehicle: saline sonified 120 % of control | dose: 37.5 mg/kg/injection, schedule: Q04DX003 (ip), vehicle: saline 90 % of control | dose: 50.0 mg/kg/injection, schedule: Q04DX003 (ip), vehicle: saline with Tween-80 118 % of control

CCOC(=O)C1C(=O)NN(/C=C2\C=CC=CC2=O)C1c1ccc([N+](=O)[O-])cc1 (stereo unspecified)
inactive: dose: 100.0 mg/kg/injection, schedule: Q04DX002 (ip), vehicle: saline 111 % of control | dose: 200.0 mg/kg/injection, schedule: Q04DX002 (ip), vehicle: saline 93 % of control | dose: 400.0 mg/kg/injection, schedule: Q04DX002 (ip), vehicle: saline 98 % of control

ClCSc1nc2cc(Cl)ccc2s1
inactive: [10] 95 % of control | [11] 100 % of control | [12] 95 % of control

OC(c1cc(-c2ccccc2)nc2c1ccc1ccccc12)C1CCCCN1 (stereo unspecified)
inactive: [8] 101 % of control | [15] 97 % of control | [4] 100 % of control | [5] 100 % of control | [6] 107 % of control

Cc1c(-c2ccccc2)ccnc1/C=N/NS(=O)(=O)c1ccccc1
inactive: dose: 50.0 mg/kg/injection, schedule: Q01DX009 (ip), vehicle: other 103 % of control | dose: 100.0 mg/kg/injection, schedule: Q01DX009 (ip), vehicle: other 97 % of control | dose: 200.0 mg/kg/injection, schedule: Q01DX009 (ip), vehicle: other 96 % of control

O=[N+]([O-])c1ccc2nc(CCl)[nH]c2c1
inactive: [13] 103 % of control | [14] 116 % of control | [10] 99 % of control and 111 % of control

Cc1cc(=O)n2c3c(c4c(cc13)c(CN(C)C)cc(=O)n4C)OC2
active: [14] 152 % of control
inactive: [13] 111 % of control | [10] 102 % of control and 118 % of control

O=C(O)c1ccccc1C(c1ccccc1)c1ccccc1
inactive: [14] 100 % of control | [10] 100 % of control | [11] 100 % of control

Fc1ccc2cc3cccc[n+]3cc2c1
inactive: [7] 100 % of control | [8] 99 % of control | [15] 99 % of control
